The data set in a line: Pharmacokinetic study in rats after oral administration of the CP extract (UPLC–TQ-MS/MS of plasma). It counts as in vivo. To be noted: male, Sprague-Dawley, rat plasma, single oral gavage of CP extract 10.5 g/kg, n=6, mean ± SD; for Cmax: non-compartmental. The method, then:
Plasma samples were thawed at room temperature before analysis. Then, 10 μl of IS solution (20 μg/ml) and 200 μl of methanol were added to the plasma sample (90 μl) in a 1.5 ml Eppendorf tube. The mixture was vortexed for 1 min and centrifuged at 12,000×g for 10 min at 4 °C to deproteinize. Thereafter, 2 μl of the supernatant was injected into the UPLC–TQ/MS system for analysis.
Six healthy male Sprague–Dawley rats were fasted for 12 h with free access to water prior to the experiment. The CP extract was administered to rats by oral gavage at a dose of 10.5 g/kg body weight. Blood samples of approximately 0.5 ml were collected at 15 and 30 min and at 1 h, 2 h, 3 h, 4 h, 6 h, 8 h, 10 h, 12 h, and 24 h in heparinized centrifuge tubes from the ophthalmic vein using a sterile capillary tube under anesthesia after oral administration of the CP extract. Following centrifugation at 4000×g for 10 min at 4 °C, plasma samples were transferred to polypropylene tubes and stored at − 80 °C until analysis.
The concentrations of six analytes in plasma at different time points were expressed as mean ± SD, which was calculated from the daily calibration curve. All the pharmacokinetic parameters were processed through non-compartmental analysis using the DAS 3.0 pharmacokinetic program. The maximum plasma concentration (Cmax) and time to reach the maximum concentrations (Tmax) were obtained directly from the curve.

Take `O=c1c(O)c(-c2ccc(O)c(O)c2)oc2cc(O)cc(O)c12` [Quercetin, quercetin]: the AUC(0-inf) was 91.7 ± 15.2 ng·h/mL, the AUC(0-t) worked out at 79.8 ± 28.5 ng·h/mL, the Tmax stood at 0.46 ± 0.1 h and the half-life was 11.7 ± 6.01 h. This compound also had a Cmax of 28.6 ± 8.23 ng/mL.
In the case of `O=C(/C=C/c1ccc(O)c(O)c1)O[C@@H]1C[C@@](O)(C(=O)O)C[C@@H](O)[C@@H]1O` [Neochlorogenic acid, neochlorogenic acid], the AUC(0-inf) turned out to be 2470 ± 943 ng·h/mL, the exposure AUC(0-t) came out at 2450 ± 952 ng·h/mL, the Tmax was 0.32 ± 0.12 h and the half-life is 4.54 ± 1.38 h. This compound also had a Cmax of 4330 ± 1610 ng/mL.
In the same order, the values of `O=C(O)[C@H]1O[C@@H](Oc2c(-c3ccc(O)c(O)c3)oc3cc(O)cc(O)c3c2=O)[C@H](O)[C@@H](O)[C@@H]1O` [Quercetin-3-O-glucuronide, quercetin-3-O-glucuronide] are 13500 ng·h/mL, 11000 ng·h/mL, 0.33 ± 0.13 h, 10 ± 3.31 h and 3710 ± 1590 ng/mL.
With `O=c1c(O)c(-c2ccc(O)cc2)oc2cc(O)cc(O)c12` [Kaempferol, kaempferol], the AUC(0-inf) was found to be 325 ± 104 ng·h/mL, the AUC(0-t) is 242 ± 77 ng·h/mL, the Tmax came to 0.67 ± 0.26 h and the half-life was 7.24 ± 1.63 h. Also, the Cmax is 122 ± 49.9 ng/mL.
For the compound `O=C(/C=C/c1ccc(O)c(O)c1)O[C@@H]1C[C@](O)(C(=O)O)C[C@@H](O)[C@H]1O` [Chlorogenic acid, chlorogenic acid], the AUC(0-inf) came out at 3580 ± 1200 ng·h/mL, the AUC(0-t) was 3310 ± 1060 ng·h/mL, the Tmax stood at 0.39 ± 0.13 h and the half-life is 2.54 ± 0.53 h. The Cmax came to 4170 ± 1890 ng/mL.

The values are drawn from article PMC6685155, “Simultaneous UPLC–TQ-MS/MS determination of six active components in rat plasma: application in the pharmacokinetic study of Cyclocarya paliurus leaves” (Chinese Medicine, 2019).
